Drawing on US10508104B2, “6-hydroxy-5-(phenyl/heteroarylsulfonyl)pyrimidin-4(1H)-one as APJ agonists” (Bristol-Myers Squibb Company, priority 2016, dated 2019), this text covers EC50 for 26 compounds.

The target of this experiment is human APJ receptor (Homo sapiens (Human), UniProt P35414). In words: Intracellular cAMP accumulation assay (APJ hcAMP, HTRF). Type of experiment: cell-based. Conditions: HEK293 cells stably expressing human APJ receptor; inhibition of forskolin-mediated cAMP production; read-out: Human APJ cAMP EC50 Potency range. A digest of the protocol:
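HEK293 cells stably expressing human APJ, 5,000 per well, incubated 30 min at rt with compound, […] and 2 μM forskolin. cAMP measured by HTRF against a cAMP standard curve as inhibition of forskolin-driven production. EC50 from variable-slope sigmoidal fit.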
(In general: cAMP levels reflect the balance of adenylyl cyclase and phosphodiesterase activity.)

As usually defined, the EC50 is the concentration needed to bring the measured effect to its halfway point.

The structures appear in SMILES notation.

Chain of human APJ receptor (P35414 whole entry): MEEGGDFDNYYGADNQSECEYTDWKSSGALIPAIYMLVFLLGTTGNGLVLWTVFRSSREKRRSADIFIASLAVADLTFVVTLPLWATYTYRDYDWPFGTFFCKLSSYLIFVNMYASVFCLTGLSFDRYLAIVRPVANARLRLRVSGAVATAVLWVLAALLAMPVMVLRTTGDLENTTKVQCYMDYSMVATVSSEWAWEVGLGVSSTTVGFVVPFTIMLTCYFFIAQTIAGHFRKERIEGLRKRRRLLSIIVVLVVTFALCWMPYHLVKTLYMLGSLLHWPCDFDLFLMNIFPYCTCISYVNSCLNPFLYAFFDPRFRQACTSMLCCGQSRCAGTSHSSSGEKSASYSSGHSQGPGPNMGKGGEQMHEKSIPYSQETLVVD

Turning to `CCOCc1nc(=O)c(S(=O)(=O)c2ccc(-c3ccncc3C)cc2)c(O)n1[C@@H](CC)c1cccc(C#N)c1` [Example 434, 3-[(1S)-1-[2-(ethoxymethyl)-6-hydroxy-5-[4-(3-methylpyridin-4-yl)benzenesulfonyl]-4-oxo-1,4-dihydropyrimidin-1-yl]propyl]benzonitrile], the EC50 lay in the range of 0.01 to 10 nM.

As for `CCOCc1nc(=O)c(S(=O)(=O)c2ccc(-c3cccnc3C)cc2)c(O)n1[C@@H](CC)c1cccc(C#N)c1` [Example 435, 3-[(1S)-1-[2-(ethoxymethyl)-6-hydroxy-5-[4-(2-methylpyridin-3-yl)benzenesulfonyl]-4-oxo-1,4-dihydropyrimidin-1-yl]propyl]benzonitrile], the EC50 fell in the range of 0.01 to 10 nM. The same measure for `CCOCc1nc(=O)c(S(=O)(=O)c2ccc(-c3ccc(F)nc3C)cc2)c(O)n1[C@@H](CC)c1cccc(C#N)c1` [Example 436, 3-[(1S)-1-[2-(ethoxymethyl)-5-[4-(6-fluoro-2-methylpyridin-3-yI)benzenesulfonyl]-6-hydroxy-4-oxo-1,4-dihydropyrimidin-1-yl]propyl]benzonitrile]: 0.01 to 10 nM; for `CCOCc1nc(=O)c(S(=O)(=O)c2ccc(-c3ccnc(F)c3C)cc2)c(O)n1[C@@H](CC)c1cccc(C#N)c1` [Example 437, 3-[(1S)-1-[2-(ethoxymethyl)-5-[4-(2-fluoro-3-methylpyridin-4-yl)benzenesulfonyl]-6-hydroxy-4-oxo-1,4-dihydropyrimidin-1-yl]propyl]benzonitrile]: 0.01 to 10 nM. Regarding `CCCCc1nc(=O)c(S(=O)(=O)c2ccc(-c3ccnc(F)c3C)cc2)c(O)n1[C@@H](CC)c1ccc(F)c(C#N)c1` [Example 438, 5-[(1S)-1-{2-butyl-5-[4-(2-fluoro-3-methylpyridin-4-yl)benzenesulfonyl]-6-hydroxy-4-oxo-1,4-dihydropyrimidin-1-yl}propyl]-2-fluorobenzonitrile], the EC50 was in the range of 0.01 to 10 nM. As for `CCCCc1nc(=O)c(S(=O)(=O)c2ccc(-c3cccnc3C)cc2)c(O)n1[C@@H](CC)c1ccc(F)c(C#N)c1` [Example 439, 5-[(1S)-1-{2-butyl-6-hydroxy-5-[4-(2-methylpyridin-3-yl)benzenesulfonyl]-4-oxo-1,4-dihydropyrimidin-1-yl}propyl]-2-fluorobenzonitrile], the figure is 0.01 to 10 nM; as for `CCCCc1nc(=O)c(S(=O)(=O)c2ccc(-c3ccc(F)nc3C)cc2)c(O)n1[C@@H](CC)c1ccc(F)c(C#N)c1` [Example 440, 5-[(1S)-1-{2-butyl-5-[4-(6-fluoro-2-methylpyridin-3-yl)benzenesulfonyl]-6-hydroxy-4-oxo-1,4-dihydropyrimidin-1-yl}propyl]-2-fluorobenzonitrile], 0.01 to 10 nM; as for `CC[C@@H](c1cccc(C#N)c1)n1c(CC2CC2)nc(=O)c(S(=O)(=O)c2ccc(-c3ccncc3C)cc2)c1O` [Example 441, 3-[(1S)-1-[2-(cyclopropylmethyl)-6-hydroxy-5-[4-(3-methylpyridin-4-yl)benzenesulfonyl]-4-oxo-1,4-dihydropyrimidin-1-yl]propyl]benzonitrile], 0.01 to 10 nM. As for `CC[C@@H](c1cccc(C#N)c1)n1c(CC2CC2)nc(=O)c(S(=O)(=O)c2ccc(-c3ccnc(F)c3C)cc2)c1O` [Example 442, 3-[(1S)-1-[2-(cyclopropylmethyl)-5-[4-(2-fluoro-3-methylpyridin-4-yl)benzenesulfonyl]-6-hydroxy-4-oxo-1,4-dihydropyrimidin-1-yl]propyl]benzonitrile], the figure is 0.01 to 10 nM; as for `CC[C@@H](c1cccc(C#N)c1)n1c(CC2CC2)nc(=O)c(S(=O)(=O)c2ccc(-c3cccnc3C)cc2)c1O` [Example 443, 3-[(1S)-1-[2-(cyclopropylmethyl)-6-hydroxy-5-[4-(2-methylpyridin-3-yl)benzenesulfonyl]-4-oxo-1,4-dihydropyrimidin-1-yl]propyl]benzonitrile], 0.01 to 10 nM; as for `CC[C@@H](c1cccc(C#N)c1)n1c(CC2CC2)nc(=O)c(S(=O)(=O)c2ccc(-c3ccc(F)nc3C)cc2)c1O` [Example 444, 3-[(1S)-1-[2-(cyclopropylmethyl)-5-[4-(6-fluoro-2-methylpyridin-3-yl)benzenesulfonyl]-6-hydroxy-4-oxo-1,4-dihydropyrimidin-1-yl]propyl]benzonitrile], 0.01 to 10 nM. For the compound `CCOCc1nc(=O)c(S(=O)(=O)c2ccc(-c3cccnc3C)cc2)c(O)n1[C@@H](CC)c1cccc(C#N)c1` [Example 445, 3-[(1S)-1-[2-(ethoxymethyl)-6-hydroxy-5-[4-(2-methylpyridin-3-yl)benzenesulfonyl]-4-oxo-1,4-dihydropyrimidin-1-yl]propyl]benzonitrile], the EC50 was 0.01 to 10 nM. The same measure for `CCCCc1nc(=O)c(S(=O)(=O)c2ccc(-c3ccnc(F)c3C)cc2)c(O)n1[C@@H](CC)c1cc(F)cc(F)c1` [Example 446, 2-butyl-1-[(1S)-1-(3,5-difluorophenyl)propyl]-5-[4-(2-fluoro-3-methylpyridin-4-yl)benzenesulfonyl]-6-hydroxy-1,4-dihydropyrimidin-4-one]: 0.01 to 10 nM. As to `CCCCc1nc(=O)c(S(=O)(=O)c2ccc(-c3ccncc3C)cc2)c(O)n1[C@H](c1cccc(C#N)c1)C(C)C` [Example 447, 3-[(1S)-1-{2-butyl-6-hydroxy-5-[4-(3-methylpyridin-4-yl)benzenesulfonyl]-4-oxo-1,4-dihydropyrimidin-1-yl}-2-methylpropyl]benzonitrile], the concentration for a half-maximal effect (EC50) was in the range of 0.01 to 10 nM. The same measure for `CCCCc1nc(=O)c(S(=O)(=O)c2ccc(-c3cccnc3C)cc2)c(O)n1[C@H](c1cccc(C#N)c1)C(C)C` [Example 448, 3-[(1S)-1-{2-butyl-6-hydroxy-5-[4-(2-methylpyridin-3-yl)benzenesulfonyl]-4-oxo-1,4-dihydropyrimidin-1-yl}-2-methylpropyl]benzonitrile]: 0.01 to 10 nM; for `CCCCc1nc(=O)c(S(=O)(=O)c2ccc(-c3cccnc3C)cc2)c(O)n1[C@@H](CC)c1cc(F)cc(C#N)c1` [Example 449, 3-[(1S)-1-{2-butyl-6-hydroxy-5-[4-(2-methylpyridin-3-yl)benzenesulfonyl]-4-oxo-1,4-dihydropyrimidin-1-yl}propyl]-5-fluorobenzonitrile]: 0.01 to 10 nM; for `CCCCc1nc(=O)c(S(=O)(=O)c2ccc(-c3ccncc3C)cc2)c(O)n1[C@@H](CC)c1cc(F)cc(C#N)c1` [Example 450, 3-[(1S)-1-{2-butyl-6-hydroxy-5-[4-(3-methylpyridin-4-yl)benzenesulfonyl]-4-oxo-1,4-dihydropyrimidin-1-yl}propyl]-5-fluorobenzonitrile]: 0.01 to 10 nM. As for `CCCCc1nc(=O)c(S(=O)(=O)c2ccc(-c3ccnc(F)c3C)cc2)c(O)n1[C@H](c1cccc(C#N)c1)C(C)C` [Example 451, 3-[(1S)-1-{2-butyl-5-[4-(2-fluoro-3-methylpyridin-4-yl)benzenesulfonyl]-6-hydroxy-4-oxo-1,4-dihydropyrimidin-1-yl}-2-methylpropyl]benzonitrile], the figure is 0.01 to 10 nM; as for `CCCCc1nc(=O)c(S(=O)(=O)c2ccc(-c3ccc(F)nc3C)cc2)c(O)n1[C@H](c1cccc(C#N)c1)C(C)C` [Example 452, 3-[(1S)-1-{2-butyl-5-[4-(6-fluoro-2-methylpyridin-3-yl)benzenesulfonyl]-6-hydroxy-4-oxo-1,4-dihydropyrimidin-1-yl}-2-methylpropyl]benzonitriIe], 0.01 to 10 nM. `CCCCc1nc(=O)c(S(=O)(=O)c2ccc(-c3ccc(F)nc3C)cc2)c(O)n1[C@@H](CC)c1cc(F)cc(C#N)c1` [Example 453, 3-[(1S)-1-{2-butyl-5-[4-(6-fluoro-2-methylpyridin-3-yl)benzenesulfonyl]-6-hydroxy-4-oxo-1,4-dihydropyrimidin-1-yl}propyl]-5-fluorobenzonitrile]: the EC50 lay within 0.01 to 10 nM. `CCCCc1nc(=O)c(S(=O)(=O)c2ccc(-c3ccc(F)nc3C)cn2)c(O)n1[C@@H](CC)c1cccc(C#N)c1` [Example 454, 3-[(1S)-1-[2-butyl-5-({6′-fluoro-2′-methyl-[3,3′-bipyridine]-6-yl}sulfonyl)-6-hydroxy-4-oxo-1,4-dihydropyrimidin-1-yl]propyl]benzonitrile]: the EC50 is 0.01 to 10 nM. As to `CCCCc1nc(=O)c(S(=O)(=O)c2ccc(-c3cccnc3C)cn2)c(O)n1[C@@H](CC)c1cccc(C#N)c1` [Example 455, 3-[(1S)-1-[2-butyl-6-hydroxy-5-({2′-methyl-[3,3′-bipyridine]-6-yl}sulfonyl)-4-oxo-1,4-dihydropyrimidin-1-yl]propyl]benzonitrile], the EC50 is 0.01 to 10 nM. On to `CCCCc1nc(=O)c(S(=O)(=O)c2ccc(-c3ccnc(F)c3C)cn2)c(O)n1[C@@H](CC)c1cccc(C#N)c1` [Example 456, 3-[(1S)-1-[2-butyl-5-({2′-fluoro-3′-methyl-[3,4′-bipyridine]-6-yl}sulfonyl)-6-hydroxy-4-oxo-1,4-dihydropyrimidin-1-yl]propyl]benzonitrile], for which the EC50 was 0.01 to 10 nM. As for `CCCCc1nc(=O)c(S(=O)(=O)c2ccc(-c3ccncc3C)cn2)c(O)n1[C@@H](CC)c1cccc(C#N)c1` [Example 457, 3-[(1S)-1-[2-butyl-6-hydroxy-5-({3′-methyl-[3,4′-bipyridine]-6-yl}sulfonyl)-4-oxo-1,4-dihydropyrimidin-1-yl]propyl]benzonitrile], the figure is 0.01 to 10 nM. As to `CCCCc1nc(=O)c(S(=O)(=O)c2ccc(-c3ccnc(F)c3C)cc2)c(O)n1[C@@H](CC)c1cc(F)cc(C#N)c1` [Example 458, 3-[(1S)-1-{2-butyl-5-[4-(2-fluoro-3-methylpyridin-4-yl)benzenesulfonyl]-6-hydroxy-4-oxo-1,4-dihydropyrimidin-1-yl}propyl]-5-fluorobenzonitrile], the EC50 is 0.01 to 10 nM. For the compound `CCCCc1nc(=O)c(S(=O)(=O)c2ccc(-c3ccnc(F)c3C)cc2)c(O)n1C(c1cccc(C#N)c1)C1CC1` (centres unmarked) [Example 459, 3-({2-butyl-5-[4-(2-fluoro-3-methylpyridin-4-yl)benzenesulfonyl]-6-hydroxy-4-oxo-1,4-dihydropyrimidin-1-yl}(cyclopropyl)methyl) benzonitrile], the EC50 fell in the range of 0.01 to 10 nM.
